The values below come from US20240190883A1, “KRAS PROTEIN DEGRADERS, PHARMACEUTICAL COMPOSITIONS THEREOF, AND THEIR THERAPEUTIC APPLICATIONS” (BioTheryX, Inc., priority 2021, published 2024).

Holding throughout (type): cell-based
Assay [1] has as its target T1, KRAS protein (Homo sapiens, UniProt P01116).
T1 construct: engineered to express a Hobbit-tagged endogenous KRAS protein; endogenous in cells; host or cells: HEK293, endogenous KRAS locus engineered with a HiBiT tag
The experiment in a line: HIBIT degradation assay, HEK293 cells. The conditions noted are these: 24 h, HiBiT signal normalized to CTG signal; for Effect on KRAS Protein Degradation, HEK293, 3 μM: compound at 3 μM. The protocol:
(§1) HEK293, MIA PaCa-2, AsPc-1, SW620, and H647 cells were engineered to express a […] endogenous KRAS protein. The HEK293 and MIA PaCa-2 cells were cultured in DMEM media supplemented with 10% fetal bovine serum, streptomycin, and penicillin. The AsPc-1, SW620, and H647 were cultured in RPMI media supplemented with 10% fetal bovine serum, streptomycin, and penicillin. The cells were seeded in white walled 96-well plates at 20,000 cells/well in 100 μL culture media in duplicate plates. After incubated at 37° C. under 5% CO2 overnight, the cells were treated with DMSO (control) or a compound, followed by the addition of 100 μL culture media to each well. After the cells were incubated for 24 h at 37° C. under 5% C02, 150 μL media were removed from each well and 50 μL NANOGLO-LGBIT lytic reagent were added to each well, and 50 μL CELLTITER-GLO (CTG) reagent was added to the duplicate plate. Following a 10-minute incubation with shaking, luminescence was measured using a Perkin Elmer ENVISION multimode plate reader. HiBiT signal was normalized to CTG signal. The results are summarized in Table 3, where “A” represents a percentage degradation value of no less than 50%; “B” represents a percentage degradation value of less than 50% and no less than 25%; “C” represents a percentage degradation value of less than 25% and no less than 10%; and “D” represents a percentage degradation value of less than 10%.
(In general: HiBiT is a short tag that completes a luciferase, so light tracks the accessible tagged protein.)

The next assay relates to Molm-13 cells. As to the kind of experiment: Cell viability assay, inhibition of Molm-13 cells. The conditions noted are these: Homo sapiens; for inhibition at 1 µM: compound at 1 μM; for inhibition at 3 µM: compound at 3 μM. The protocol:
[Worded in the source for another cell line; this cell line is reported under the same test.] (§2) H358, H23, SW48, and AsPC-1 cells were cultured in RPMI 1640 media supplemented with 10% fetal bovine serum, streptomycin, and penicillin. Lovo and SW480 cells were cultured in DMEM media supplemented with 10% fetal bovine serum, streptomycin, and penicillin. The cell lines were plated in their respective medium supplemented with 2.5% fetal bovine serum, streptomycin, and penicillin. All cell lines were plated in white walled 96-well plates at 2,000 cells/well or 384-well plates at 500 cells/well, except Lovo, which were plated at 4,000 or 1,000 cells/well, respectively. The cells were incubated in DMSO (control) or a compound for 3 days at 37° C. under 5% C02. A CELLTITER-GLO® reagent (100 μL) was then added to each well. After a 10 min incubation with shaking, luminescence was measured using an ENVISION® multimode plate reader. IC50 values are summarized in Table 1 and percentages of inhibition are summarized in Table 2, where compound T1 is 2-(4-(2-methyl-3,5-diphenylpyrazolo[1,5-a]pyrimidin-7-yl)piperazin-1-yl)ethan-1-ol.

Assay [2] deals with T2, KRAS protein (Homo sapiens, UniProt P01116, G12D).
T2 construct: engineered to express a Hobbit-tagged endogenous KRAS protein; endogenous in cells; host or cells: AsPC-1, endogenous KRAS locus engineered with a HiBiT tag
T2 sequence (P01116 1-188 isoform P01116-2 G12D): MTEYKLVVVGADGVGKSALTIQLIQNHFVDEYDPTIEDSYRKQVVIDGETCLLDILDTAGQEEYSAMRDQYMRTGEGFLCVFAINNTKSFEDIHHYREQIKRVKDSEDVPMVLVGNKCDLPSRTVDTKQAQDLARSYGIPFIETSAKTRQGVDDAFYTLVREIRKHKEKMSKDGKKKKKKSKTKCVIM
The experiment in a line: HIBIT degradation assay, AsPC-1 cells. As to conditions: 24 h, HiBiT signal normalized to CTG signal. The protocol:
as §1

Another assay concerns Lovo (G13D) cells. As to the kind of experiment: Cell viability assay (CELLTITER-GLO), Lovo cells. As to conditions: Homo sapiens, 72 h, 3 days incubation, 2.5% fetal bovine serum, read-out: Inhibition of Cancerous Cells IC50 (μM) Lovo (G13D). The protocol: as §2
Background: Cellular ATP, detected with luciferase, serves as a proxy for viable cell number.

In a further assay the test system is SW48 (wt) cells. As to the kind of experiment: Cell viability assay (CELLTITER-GLO), SW48 cells. The conditions noted are these: Homo sapiens, 72 h, 3 days incubation, 2.5% fetal bovine serum, read-out: Inhibition of Cancerous Cells IC50 (μM) SW48 (wt). The protocol:
as §2

The test system of another assay is SW480 (G12V) cells. The experiment in a line: Cell viability assay (CELLTITER-GLO), SW480 cells. As to conditions: Homo sapiens, 72 h, 3 days incubation, 2.5% fetal bovine serum, read-out: Inhibition of Cancerous Cells IC50 (μM) SW480 (G12V). Here is the method: as §2
For the next assay, the system named is AsPC-1 (G12D) cells. The experiment in a line: Cell viability assay (CELLTITER-GLO), AsPC-1 cells. As to conditions: Homo sapiens, ASPC1, 72 h, 3 days incubation, 2.5% fetal bovine serum, read-out: Inhibition of Cancerous Cells IC50 (μM) AsPC-1 (G12D). The protocol: as §2
The subject of the next assay is H358 (G12C) cells. The experiment in a line: Cell viability assay (CELLTITER-GLO), H358 cells. As to conditions: Homo sapiens, NCI-H358, 72 h, 3 days incubation, 2.5% fetal bovine serum, read-out: Inhibition of Cancerous Cells IC50 (μM) H358 (G12C). The protocol:
as §2

T1 sequence (P01116 1-188 isoform P01116-2): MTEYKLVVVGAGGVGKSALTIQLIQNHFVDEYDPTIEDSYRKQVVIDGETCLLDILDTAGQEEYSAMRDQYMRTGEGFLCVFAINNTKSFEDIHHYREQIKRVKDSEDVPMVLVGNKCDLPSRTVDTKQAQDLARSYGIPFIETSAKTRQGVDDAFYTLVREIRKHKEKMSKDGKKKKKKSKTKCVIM

Take `Cc1nn2c(N3CCN(CCO)CC3)cc(-c3cccc(CCCCCCCN4CCN(C(=O)COc5cccc(N6CCC(=O)NC6=O)c5)CC4)c3)nc2c1-c1ccccc1` [Compound C2, 1-(3-(2-(4-(7-(3-(7-(4-(2-Hydroxyethyl)piperazin-1-yl)-2-methyl-3-phenyl-pyrazolo[1,5-a]pyrimidin-5-yl)phenyl)heptyl)piperazin-1-yl)-2-oxoethoxy)phenyl)dihydro-pyrimidine-2,4(1H,3H)-dione]: the “Effect on KRAS Protein Degradation, HEK293, 3 μM” value on KRAS protein [1] is “B (a percentage degradation value of less than 50% and no less than 25%)”.
On to `Cc1nn2c(N3CCN(CCO)CC3)cc(-c3ccccc3)nc2c1-c1cccc(CCCCCN2CCN(C(=O)COc3cccc(N4CCC(=O)NC4=O)c3)CC2)c1` [Compound C10, 1-(3-(2-(4-(5-(3-(7-(4-(2-Hydroxyethyl)piperazin-1-yl)-2-methyl-5-phenyl-pyrazolo[1,5-a]pyrimidin-3-yl)phenyl)pentyl)piperazin-1-yl)-2-oxoethoxy)phenyl)dihydro-pyrimidine-2,4(1H,3H)-dione], for which, in the assay on Molm-13 cells, the inhibition (as a rule, the percentage by which the read-out fell short of the control) at 1 µM is 29% and the inhibition at 3 µM was determined as 98%.
Regarding `Cc1nn2c(N3CCN(CCO)CC3)cc(-c3ccccc3)nc2c1-c1cccc(CCCN2CCN(C(=O)CNc3cccc4c(N5CCC(=O)NC5=O)nn(C)c34)CC2)c1` [Compound D16, 1-(7-((2-(4-(3-(3-(7-(4-(2-Hydroxyethyl)piperazin-1-yl)-2-methyl-5-phenyl-pyrazolo[1,5-a]pyrimidin-3-yl)phenyl)propyl)piperazin-1-yl)-2-oxoethyl)amino)-1-methyl-1H-indazol-3-yl)dihydropyrimidine-2,4(1H,3H)-dione], the “Effect on KRAS Protein Degradation, HEK293, 3 μM” value at KRAS protein [1] is “C (a percentage degradation value of less than 25% and no less than 10%)”. Also, the “Effect on KRAS Protein Degradation, HEK293, 5 μM” value on KRAS protein [1] (compound at 5 μM) was “C (a percentage degradation value of less than 25% and no less than 10%)”. Moreover, the “Effect on KRAS Protein Degradation, AsPC-1, 3 μM” value on KRAS protein [2] (compound at 3 μM) was “C (a percentage degradation value of less than 25% and no less than 10%)”. In addition, at KRAS protein [2] (compound at 5 μM), the “Effect on KRAS Protein Degradation, AsPC-1, 5 μM” value is given as “D (a percentage degradation value of less than 10%)”.
`Cc1nn2c(N3CCN(CCO)CC3)cc(-c3ccccc3)nc2c1-c1cccc(CCCN2CCN(C(=O)CNc3ccc4c(C5CCC(=O)NC5=O)nn(C)c4c3)CC2)c1` (stereo not drawn) [Compound D7, 3-(6-((2-(4-(3-(3-(7-(4-(2-Hydroxyethyl)piperazin-1-yl)-2-methyl-5-phenyl-pyrazolo[1,5-a]pyrimidin-3-yl)phenyl)propyl)piperazin-1-yl)-2-oxoethyl)amino)-1-methyl-1H-indazol-3-yl)piperidine-2,6-dione]: the 50% inhibitory concentration (IC50) – broadly, the concentration at which inhibition is half-maximal – in the assay on Lovo (G13D) cells is 1.3 µM; with SW48 (wt) cells it was 1.2 µM; in the assay with SW480 (G12V) cells, 0.86 µM; in the assay with AsPC-1 (G12D) cells it was 1.3 µM; in the assay on H358 (G12C) cells it was 3.3 µM.
In the case of `Cc1nn2c(N3CCN(CCO)CC3)cc(-c3ccccc3)nc2c1-c1cccc(CCCCCCCN2CCN(C(=O)CNc3ccc4c(N5CCC(=O)NC5=O)nn(C)c4c3)CC2)c1` [Compound D15, 1-(6-((2-(4-(7-(3-(7-(4-(2-Hydroxyethyl)piperazin-1-yl)-2-methyl-5-phenyl-pyrazolo[1,5-a]pyrimidin-3-yl)phenyl)heptyl)piperazin-1-yl)-2-oxoethyl)amino)-1-methyl-1H-indazol-3-yl)dihydropyrimidine-2,4(1H,3H)-dione], the half-inhibitory concentration (IC50) in the assay with Lovo (G13D) cells was 0.64 µM; in the assay with SW48 (wt) cells, 1.1 µM; in the assay with SW480 (G12V) cells, 0.56 µM; in the assay with AsPC-1 (G12D) cells, 1.4 µM; with H358 (G12C) cells, 1.3 µM.
In the assay on Molm-13 cells, `Cc1nn2c(N3CCN(CCO)CC3)cc(-c3cccc(CCCN4CCN(C(=O)CNc5ccc6c(C7CCC(=O)NC7=O)nn(C)c6c5)CC4)c3)nc2c1-c1ccccc1` (stereo not drawn) [Compound D1, 3-(6-((2-(4-(3-(3-(7-(4-(2-Hydroxyethyl)piperazin-1-yl)-2-methyl-3-phenyl-pyrazolo[1,5-a]pyrimidin-5-yl)phenyl)propyl)piperazin-1-yl)-2-oxoethyl)amino)-1-methyl-1H-indazol-3-yl)piperidine-2,6-dione] displayed an inhibition at 1 µM of 24% and an inhibition at 3 µM of 98%.
As to `Cc1nn2c(N3CCN(CCO)CC3)cc(-c3ccccc3)nc2c1-c1cccc(CCCCCN2CCN(C(=O)CNc3ccc4c(C5CCC(=O)NC5=O)nn(C)c4c3)CC2)c1` (stereo not drawn) [Compound D8, 3-(6-((2-(4-(5-(3-(7-(4-(2-Hydroxyethyl)piperazin-1-yl)-2-methyl-5-phenyl-pyrazolo[1,5-a]pyrimidin-3-yl)phenyl)pentyl)piperazin-1-yl)-2-oxoethyl)amino)-1-methyl-1H-indazol-3-yl)piperidine-2,6-dione], the IC50 in the assay with Lovo (G13D) cells was found to be 0.63 µM; in the assay with SW48 (wt) cells it was 0.72 µM; in the assay on SW480 (G12V) cells it was 0.4 µM; with AsPC-1 (G12D) cells, 1.3 µM; with H358 (G12C) cells, 1.2 µM.
As for `Cc1nn2c(N3CCN(CCO)CC3)cc(-c3ccccc3)nc2c1-c1cccc(CCCN2CCN(C(=O)CNc3ccc4c(N5CCC(=O)NC5=O)nn(C)c4c3)CC2)c1` [Compound D13, 1-(6-((2-(4-(3-(3-(7-(4-(2-Hydroxyethyl)piperazin-1-yl)-2-methyl-5-phenyl-pyrazolo[1,5-a]pyrimidin-3-yl)phenyl)propyl)piperazin-1-yl)-2-oxoethyl)amino)-1-methyl-1H-indazol-3-yl)dihydropyrimidine-2,4(1H,3H)-dione], the IC50 stood at 0.66 µM in the assay on Lovo (G13D) cells; 2 µM in the assay on SW48 (wt) cells; 0.76 µM with SW480 (G12V) cells; 2.3 µM in the assay on AsPC-1 (G12D) cells; 1.1 µM with H358 (G12C) cells.
The like results for `Cc1nn2c(N3CCN(CCO)CC3)cc(-c3ccccc3)nc2c1-c1cccc(CCCCCCCN2CCN(C(=O)CNc3cccc4c(C5CCC(=O)NC5=O)nn(C)c34)CC2)c1` (stereo not drawn) [Compound D12, 3-(7-((2-(4-(7-(3-(7-(4-(2-Hydroxyethyl)piperazin-1-yl)-2-methyl-5-phenyl-pyrazolo[1,5-a]pyrimidin-3-yl)phenyl)heptyl)piperazin-1-yl)-2-oxoethyl)amino)-1-methyl-1H-indazol-3-yl)piperidine-2,6-dione] were, in that order, 0.92 µM, 0.96 µM, 0.47 µM, 1.4 µM and 1.2 µM.
For `Cc1nn2c(N3CCN(CCO)CC3)cc(-c3ccccc3)nc2c1-c1cccc(CCCCCCCCCN2CCN(C(=O)COc3cccc(N4CCC(=O)NC4=O)c3)CC2)c1` [Compound C12, 1-(3-(2-(4-(9-(3-(7-(4-(2-hydroxyethyl)piperazin-1-yl)-2-methyl-5-phenyl-pyrazolo[1,5-a]pyrimidin-3-yl)phenyl)nonyl)piperazin-1-yl)-2-oxoethoxy)phenyl)dihydro-pyrimidine-2,4(1H,3H)-dione], in that order: 0.63 µM, 0.73 µM, 0.45 µM, 1 µM and 1.4 µM.
